Measurements taken from the SangsterLogP compilation.

SMILES | logP
NC1C2CCC1c1ccc(C(F)(F)F)cc1C2 (stereo not drawn) | 3.54
O=[N+]([O-])c1ccc(O[C@@H]2O[C@H](CO)[C@H](O)[C@H](O)[C@H]2O)cc1 | -0.63
Cc1cc(=O)oc2ccc(O[C@@H]3O[C@H](CO)[C@@H](O)[C@H](O)[C@H]3O)cc12 | -0.66
CCC(=O)OC1(c2ccccc2)CCN(C)C(C)C1C (stereo not drawn) | 2.97
C=C[C@H]1CN2CC[C@H]1C[C@@H]2[C@@H](O)c1ccnc2ccccc12 | 2.68
NC1C2CCC1c1cc(C(F)(F)F)ccc1C2 (stereo not drawn) | 3.45
COc1ccccc1/C=C/C(=O)O | 2.54
NC1C2CCC1c1cccc(C(F)(F)F)c1C2 (stereo not drawn) | 3.41
CCC(=O)OC1(c2ccccc2)CCN(C)CC1C (stereo not drawn) | 2.43
OC(c1ccccc1)C(O)c1ccccc1 (stereo not drawn) | 1.91
CCC(=O)O[C@]1(c2ccccc2)C[C@H](C)N(C)C[C@H]1C | 3.13
C=CCC1CN(C)CCC1(OC(=O)CC)c1ccccc1 (stereo not drawn) | 2.97
NC1C2CCC1c1ccccc1C2 (stereo not drawn) | 2.04
C[C@H](N)[C@H](O)c1ccccc1 (relative stereo) | 0.67
CC(=O)OC1(c2ccccc2)CCN(C)C(C)C1C (stereo not drawn) | 2.51
COc1cccc([C@]2(O)CCCC[C@H]2CN(C)C)c1 (relative stereo) | 2.51
NC1C2CCC1c1ccccc12 (stereo not drawn) | 2.01
NC1CCc2ccccc2C1O (stereo not drawn) | 0.81
